Format in all cases: cell-based, human
Data set [1] has as its system RPE cells. Kind of data set: BrDU incorporation after siRNA treatment and nocodazole synchronization. The settings on record: relative to control cells (siRNA to lamin), after nocodazole release; FIG. 2A. How it is done: (§1) To further study the effects of silencing centrosomal genes, the following cell cycle experiments were performed using RPE cells. In immunofluorescence experiments, cells were delivered by OLIGOFECTAMINE in a media solution containing between 1-100 nanomolar concentration of siRNAs. After 4 hours of incubation with lipofectamine, cells were washed, and cell cycle progression was assayed by (i) treating cells with 5-Bromo-2′-deoxyuridine (BrDU from Sigma, St Louis, Mo.) for 24 hours and staining for BrDU or (ii) staining cells with antibody to Ki-67 (BD Biosciences) according to manufacturer's instructions. BrDU treatment and staining were performed as follows: after 50-70 hours incubation with siRNA, BrDU was added to cells at a final concentration of 5 μg/ml. Cells were fixed in −20° C. methanol and then treated with 2N HCL at 22° C. for 30 minutes, incubated with 1:500 mouse anti-BrdU antibody (Becton Dickinson, Palo Alto, Calif.), and labeled with 1:1,000 goat FITC-mouse antibody (Molecular Probes, Inc.). Cells were also treated with 4′,6-diamidino-2-phenylindole (DAPI) (Molecular Probes) according to the manufacturer's instructions. Cells were prepared, imaged, and the resulting images were deconvolved as described in Example 1.
Upon release from nocodazole treatment, proliferating cells typically resume cell cycle progression. Chromosomal DNA in the cells was imaged using DAPI (faint ghost-like staining) and/or BrDU (brighter staining). Although DAPI can be used to visualize DNA at any stage of the cell cycle, BrDU is only incorporated into newly synthesized DNA only during S-phase. Thus, BrDU incorporation can be used as a marker of cells that progress through at least one S-phase of the cell cycle. Control cells in this experiment were treated with siRNA to lamin.

In data set [2] the test system is RPE cells. Kind of data set: Ki-67 staining of siRNA-treated cells. The settings on record: vs silamin; FIG. 2B. The protocol: as §1
FIG. 2B confirms the results in FIG. 2A using a different immunofluorescence marker for cell cycle progression. […]

For data set [3], the system named is RPE cells. Description: BrDU staining of cells treated in tandem with two siRNAs (p53 dependence). The settings on record: tandem treatment silaminin then indicated siRNA, vs silamin/silamin; FIG. 6B. How it is done:
as §1
(§2) A number of experiments were conducted to determine if p53 is required for the cell cycle arrest phenotype described herein. FACS analysis of tandem siRNA-treated cells was performed as described in Example 2. BrDU and DAPI imaging was performed as described in Example 2. Intracellular p53 was visualized using anti-p53 antibody that is specific for activated p53 (i.e., p53 phosphorylated at Serine 33) (“α-Pser33-p53” provided by Yoichi Taya and described in Kishis et al., J. Biol. Chem., 276:39115-3922, 2001)

Another data set has as its system p53. Description: Immunofluorescence of p53 and phosphorylated p53 (α-Pser33-p53) localization. The settings on record: vs silamin. The protocol:
as §2
Translocation of p53 into the nucleus caused by depletion of centrosomal proteins was also observed by immunofluorescence. […] Relatively little p53 translocated from the cytoplasm to the nucleus of silamin.
An antibody specifically reactive for phosphorylated p53 (α-Pser33-p53) was used to determine the phosphorylated state of p53 that accumulates in the nucleus as a result of GCP2 gene product depletion. In FIG. 6F, the left panels depict cells treated with silamin; the right panels depict cells treated with siGCP2. […] The two upper panels show a merged view of (i) the bottom panels and (ii) the same cells stained with DAPI. […] This nuclear localization is confirmed by the overlapping DAPI staining.

d = 2'-deoxy (DNA)

For the sequence “UCUCGUACUCCAGAAGACU (siRNA; RNA, 3' dTdT, backbone not given here) [siGCP2, siRNA directed to GCP2]”, the “incorporation of BrDU into chromosomal material” value with RPE cells [1] is reported as “clearly inhibited incorporation of BrDU”. Moreover, the “cells expressing Ki67” value in the data set with RPE cells [2] is listed as “Very few cells”. Also, the “cells incorporating BrDU” value in the data set with RPE cells [3] was “substantially fewer”. In the data set with p53 (FIG. 6E), the “p53 accumulation in nucleus (immunofluorescence)” value is recorded as “substantially more p53 accumulated in nucleus”. For the same sequence, in the data set with p53 (FIG. 6F), the “localization of activated p53 (α-Pser33-p53 staining)” value is given as “activated p53 was detected only in the nucleus”.
